Data reported in patent publication US11161854B2, “Indazolyl-spiro[2.2]pentane-carbonitrile derivatives as LRRK2 inhibitors, pharmaceutical compositions, and uses thereof” (Merck Sharp & Dohme Corp., priority 2017, dated 2021).

Molecular target: GST-tagged truncated human mutant G2019S LRRK2 (Homo sapiens (Human), UniProt Q5S007, G2019S)
Assay: LRRK2 G2019S Km ATP LanthaScreen Assay
Type: biochemical
Settings: 134 μM ATP (Km ATP); fluorescein-labeled LRRKtide substrate; mean IC50 values
Protocol: The IC50 values reported herein were measured as follows.
Biological Assay: LRRK2 Km ATP LanthaScreen™ Assay
The data presented for the Km ATP LanthaScreen™ Assay represents mean IC50 values based on several test results and may have reasonable deviations depending on the specific conditions and reagents used. Assays were performed in the presence of 134 μM ATP (Km ATP). Upon completion, the assay was stopped and phosphorylated substrate detected with a terbium (Tb)-labeled anti-pERM antibody (cat. no. PV4898). The compound dose response was prepared by diluting a 10 mM stock of compound to a maximum concentration of […] in 100% dimethylsulfoxide followed by custom fold serial dilution in dimethylsulfoxide nine times. Twenty nanoliters of each dilution was spotted via a Labcyte Echo onto a 384-well black-sided plate (Corning 3575) followed by 15 μl of a 1.25 nM enzyme solution in 1× assay buffer (50 mM Tris pH 8.5, 10 mM MgCl2, 0.01% Brij-35, 1 mM EGTA, 2 mM dithiothreitol, 0.05 mM sodium orthovanadate). Following a 15-minute incubation at room temperature, the kinase reaction was started with the addition of 5 μl of 400 nM fluorescein-labeled LRRKtide peptide substrate and 134 μM ATP solution in 1× assay buffer. The reaction was allowed to progress at ambient temperature for 90 minutes. The reaction was then stopped by the addition of 20 μl of TR-FRET Dilution Buffer (Life Technologies, Carlsbad, Calif.) containing 2 nM Tb-labeled anti-phospho LRRKtide antibody and 10 mM EDTA (Life Technologies, Carlsbad, Calif.). After an incubation of 1 hour at room temperature, the plate was read on an EnVision multimode plate reader (Perkin Elmer, Waltham, Mass.) with an excitation wavelength of 337 nm (Laser) and a reading emission at both 520 and 495 nm. […] Abase uses a 4 parameter (4P) logistic fit based on the Levenberg-Marquardt algorithm.

Chain of GST-tagged truncated human mutant G2019S LRRK2 (Q5S007 970-2527 G2019S): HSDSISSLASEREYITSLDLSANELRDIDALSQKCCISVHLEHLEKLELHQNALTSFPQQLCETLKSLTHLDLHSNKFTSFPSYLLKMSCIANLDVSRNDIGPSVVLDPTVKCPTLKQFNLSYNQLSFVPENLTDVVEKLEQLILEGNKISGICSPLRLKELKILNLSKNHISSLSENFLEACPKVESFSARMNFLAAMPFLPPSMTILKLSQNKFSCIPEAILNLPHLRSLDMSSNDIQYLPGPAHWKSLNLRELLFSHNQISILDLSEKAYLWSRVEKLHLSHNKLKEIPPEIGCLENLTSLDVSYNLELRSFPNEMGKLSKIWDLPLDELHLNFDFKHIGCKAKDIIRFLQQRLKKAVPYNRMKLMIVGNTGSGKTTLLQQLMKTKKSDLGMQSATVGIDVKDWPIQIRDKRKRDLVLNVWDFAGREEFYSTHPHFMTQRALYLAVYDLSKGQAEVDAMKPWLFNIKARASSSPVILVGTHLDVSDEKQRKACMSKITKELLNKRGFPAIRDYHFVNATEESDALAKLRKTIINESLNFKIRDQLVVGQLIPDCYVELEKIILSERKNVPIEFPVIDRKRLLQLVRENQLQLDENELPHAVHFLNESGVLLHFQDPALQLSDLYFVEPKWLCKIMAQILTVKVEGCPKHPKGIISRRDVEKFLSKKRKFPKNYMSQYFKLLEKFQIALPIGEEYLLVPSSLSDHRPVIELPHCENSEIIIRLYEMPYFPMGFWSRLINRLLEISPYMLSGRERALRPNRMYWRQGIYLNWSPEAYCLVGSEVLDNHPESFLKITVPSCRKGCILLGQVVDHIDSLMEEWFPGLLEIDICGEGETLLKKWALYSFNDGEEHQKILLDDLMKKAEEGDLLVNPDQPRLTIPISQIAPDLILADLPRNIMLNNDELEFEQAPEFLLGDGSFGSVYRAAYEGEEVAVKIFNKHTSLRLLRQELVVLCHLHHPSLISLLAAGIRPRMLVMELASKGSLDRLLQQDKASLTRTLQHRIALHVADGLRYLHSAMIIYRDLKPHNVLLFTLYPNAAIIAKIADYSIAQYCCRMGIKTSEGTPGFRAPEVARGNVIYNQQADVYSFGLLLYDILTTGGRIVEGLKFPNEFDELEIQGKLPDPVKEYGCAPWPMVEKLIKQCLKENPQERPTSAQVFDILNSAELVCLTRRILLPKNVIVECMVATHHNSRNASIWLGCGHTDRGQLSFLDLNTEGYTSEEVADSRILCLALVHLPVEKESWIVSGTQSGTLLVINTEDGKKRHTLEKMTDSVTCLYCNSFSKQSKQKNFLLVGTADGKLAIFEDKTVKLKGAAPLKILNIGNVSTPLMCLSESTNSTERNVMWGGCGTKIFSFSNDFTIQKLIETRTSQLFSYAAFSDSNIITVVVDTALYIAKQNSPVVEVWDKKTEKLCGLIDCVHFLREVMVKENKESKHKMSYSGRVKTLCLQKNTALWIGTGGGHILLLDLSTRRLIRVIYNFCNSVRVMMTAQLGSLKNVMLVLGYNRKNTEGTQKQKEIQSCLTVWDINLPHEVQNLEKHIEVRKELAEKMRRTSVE

| SMILES | IC50 [nM] |
| --- | --- |
| CC(C)(O)[C@@H]1CCN(c2cc(-n3ncc4ccc(C5(C#N)CC56CC6)cc43)ncn2)C1 (single isomer, unassigned) [Example 1.4-1, (R or S)-1-(1-(6-((R)-3-(2-hydroxypropan-2-yl)pyrrolidin-1-yl)pyrimidin-4-yl)-1H-indazol-6-yl)spiro[2.2]pentane-1-carbonitrile] | 1 |
| COCc1nc(N2CC3(C(C)(C)O)CC2C3)cc(-n2ncc3ccc(C4(C#N)CC45CC5)cc32)n1 (single isomer, unassigned) [Example 2.3-1, (R or S)-1-(1-(6-(4-(2-hydroxypropan-2-yl)-2-azabicyclo[2.1.1]hexan-2-yl)-2-(methoxymethyl)pyrimidin-4-yl)-1H-indazol-6-yl)spiro[2.2]pentane-1-carbonitrile] | 1.1 |
| COCc1nc(N2CC3(C(C)(C)O)CC2C3)cc(-n2ncc3ccc(C4(C#N)CC45CC5)cc32)n1 (single isomer, unassigned) [Example 2.3-2, (R or S)-1-(1-(6-(4-(2-hydroxypropan-2-yl)-2-azabicyclo[2.1.1]hexan-2-yl)-2-(methoxymethyl)pyrimidin-4-yl)-1H-indazol-6-yl)spiro[2.2]pentane-1-carbonitrile] | 1.2 |
| Cc1nc(N2CC3(C(C)(C)O)CC2C3)cc(-n2ncc3ccc(C4(C#N)CC45CC5)cc32)n1 (single isomer, unassigned) [Example 2.4-1, 1-(1-(6-(4-(2-hydroxypropan-2-yl)-2-azabicyclo[2.1.1]hexan-2-yl)-2-methylpyrimidin-4-yl)-1H-indazol-6-yl)spiro[2.2]pentane-1-carbonitrile] | 2.1 |
| Cc1nc(N2CC3(C(C)(C)O)CC2C3)cc(-n2ncc3ccc(C4(C#N)CC45CC5)cc32)n1 (single isomer, unassigned) [Example 2.4-2, 1-(1-(6-(4-(2-hydroxypropan-2-yl)-2-azabicyclo[2.1.1]hexan-2-yl)-2-methylpyrimidin-4-yl)-1H-indazol-6-yl)spiro[2.2]pentane-1-carbonitrile] | 0.6 |
| COc1nc(N2CC3(C(C)(C)O)CC2C3)cc(-n2ncc3ccc(C4(C#N)CC45CC5)cc32)n1 (single isomer, unassigned) [Example 2.5-1, 1-(1-(6-(4-(2-hydroxypropan-2-yl)-2-azabicyclo[2.1.1]hexan-2-yl)-2-methoxypyrimidin-4-yl)-1H-indazol-6-yl)spiro[2.2]pentane-1-carbonitrile] | 0.9 |
| COc1nc(N2CC3(C(C)(C)O)CC2C3)cc(-n2ncc3ccc(C4(C#N)CC45CC5)cc32)n1 (single isomer, unassigned) [Example 2.5-2, 1-(1-(6-(4-(2-hydroxypropan-2-yl)-2-azabicyclo[2.1.1]hexan-2-yl)-2-methoxypyrimidin-4-yl)-1H-indazol-6-yl)spiro[2.2]pentane-1-carbonitrile] | 0.8 |
| CNc1nc(N2CC3(C(C)(C)O)CC2C3)cc(-n2ncc3ccc(C4(C#N)CC45CC5)cc32)n1 (single isomer, unassigned) [Example 2.7-1, 1-(1-(6-(4-(2-hydroxypropan-2-yl)-2-azabicyclo[2.1.1]hexan-2-yl)-2-(methylamino)pyrimidin-4-yl)-1H-indazol-6-yl)spiro[2.2]pentane-1-carbonitrile] | 3 |
| CNc1nc(N2CC3(C(C)(C)O)CC2C3)cc(-n2ncc3ccc(C4(C#N)CC45CC5)cc32)n1 (single isomer, unassigned) [Example 2.7-2, 1-(1-(6-(4-(2-hydroxypropan-2-yl)-2-azabicyclo[2.1.1]hexan-2-yl)-2-(methylamino)pyrimidin-4-yl)-1H-indazol-6-yl)spiro[2.2]pentane-1-carbonitrile] | 0.6 |
| CNc1nc(N2CC[C@H](C(F)F)C2)cc(-n2ncc3ccc(C4(C#N)CC45CC5)cc32)n1 (single isomer, unassigned) [Example 2.8-1] | 0.7 |
| CNc1nc(N2CC[C@H](C(F)F)C2)cc(-n2ncc3ccc(C4(C#N)CC45CC5)cc32)n1 (single isomer, unassigned) [Example 2.8-2] | 1.1 |
| C[C@H]1CN(c2cc(-n3ncc4ccc(C5(C#N)CC56CC6)cc43)ncn2)CCN1C1COC1 (single isomer, unassigned) [Example 3.1, (R or S)-1-(1-(6-((S)-3-methyl-4-(oxetan-3-yl)piperazin-1-yl)pyrimidin-4-yl)-1H-indazol-6-yl)spiro[2.2]pentane-1-carbonitrile] | 0.6 |
| CC1C(C(C)(C)O)CCN1c1cc(-n2ncc3ccc([C@@]4(C#N)CC45CC5)cc32)ncn1 (single isomer, unassigned) [Example 3.5-1] | 123 |
| CC1C(C(C)(C)O)CCN1c1cc(-n2ncc3ccc([C@]4(C#N)CC45CC5)cc32)ncn1 (single isomer, unassigned) [Example 3.5-2] | 31.6 |
| CC1C(C(C)(C)O)CCN1c1cc(-n2ncc3ccc([C@@]4(C#N)CC45CC5)cc32)ncn1 (single isomer, unassigned) [Example 3.5-3] | 1.9 |
| CC1C(C(C)(C)O)CCN1c1cc(-n2ncc3ccc([C@@]4(C#N)CC45CC5)cc32)ncn1 (single isomer, unassigned) [Example 3.5-4] | 0.6 |
| CC1C(C(C)(C)O)CCN1c1cc(-n2ncc3ccc([C@@]4(C#N)CC45CC5)cc32)ncn1 (single isomer, unassigned) [Example 3.5-5] | 27.6 |
| CC1C(C(C)(C)O)CCN1c1cc(-n2ncc3ccc([C@]4(C#N)CC45CC5)cc32)ncn1 (single isomer, unassigned) [Example 3.5-6] | 4.9 |
| CC1C(C(C)(C)O)CCN1c1cc(-n2ncc3ccc([C@@]4(C#N)CC45CC5)cc32)ncn1 (single isomer, unassigned) [Example 3.5-7] | 5.1 |
| CC1C(C(C)(C)O)CCN1c1cc(-n2ncc3ccc([C@]4(C#N)CC45CC5)cc32)ncn1 (single isomer, unassigned) [Example 3.5-8] | 1.1 |
| CC1CN(c2cc(-n3ncc4ccc([C@@]5(C#N)CC56CC6)cc43)ncn2)CC1C(C)(C)O (single isomer, unassigned) [Example 3.6-1] | 2.2 |
| CC1CN(c2cc(-n3ncc4ccc([C@]5(C#N)CC56CC6)cc43)ncn2)CC1C(C)(C)O (single isomer, unassigned) [Example 3.6-2] | 0.6 |
| CC1CN(c2cc(-n3ncc4ccc([C@@]5(C#N)CC56CC6)cc43)ncn2)CC1C(C)(C)O (single isomer, unassigned) [Example 3.6-3] | 9.8 |
| CC1CN(c2cc(-n3ncc4ccc([C@]5(C#N)CC56CC6)cc43)ncn2)CC1C(C)(C)O (single isomer, unassigned) [Example 3.6-4] | 2.1 |
| C[C@@H]1CN(c2cc(-n3ncc4ccc([C@@]5(C#N)CC56CC6)cc43)ncn2)CCN1C1CCOC1 (single isomer, unassigned) [Example 3.7-1] | 8 |
| C[C@@H]1CN(c2cc(-n3ncc4ccc([C@]5(C#N)CC56CC6)cc43)ncn2)CCN1C1CCOC1 (single isomer, unassigned) [Example 3.7-2] | 1.7 |
| C[C@@H]1CN(c2cc(-n3ncc4ccc([C@@]5(C#N)CC56CC6)cc43)ncn2)CCN1C1CCOC1 (single isomer, unassigned) [Example 3.7-3] | 9 |
| C[C@@H]1CN(c2cc(-n3ncc4ccc([C@]5(C#N)CC56CC6)cc43)ncn2)CCN1C1CCOC1 (single isomer, unassigned) [Example 3.7-4] | 2 |
